The subject of assay [1] is Amyloid-β peptide release (Aβ42), HEK cells overexpressing APP (HEK-APP). Briefly: Amyloid-β peptide release (Aβ42) assay, AlphaLISA on supernatant of HEK-APP cells. The format is cell-based. The following applies: Homo sapiens, HEK293, 24 h incubation with compound, read-out: Ab42 IC50 Ranges. The protocol:
(§1) Amyloid-β Peptide Release (Aβ42 & AβTotal) Assay to Determine IC50 Values.
(§2) Compounds are dissolved in and diluted in 100% DMSO and incubated with HEK-APP cells for 24 h at 37° C. in 5% CO2. The supernatant from HEK-APP cells are mixed with antibodies: for Aβ42 detection: AlphaLISA Amyloid-β 1-42 Kit (Perkin Elmer AL203L) Anti-Amyloid β1-42-specific antibody acceptor beads, biotinylated anti-Amyloid-“β1-42” antibody and streptavidin (SA) donor beads diluted in AlphaLISA buffer (to the instructions of the supplier). For Aβ total detection: Custom Anti-Amyloid-βtotal acceptor beads (6E10 acceptor beads), biotinylated anti-Amyloid “β1-42” antibody (Perkin Elmer AL203L) and streptavidin (SA) donor beads diluted in AlphaLISA buffer (to the instructions of the supplier). After addition of supernatant to the antibody mix, the assay is incubated for 4.5 h. Amyloid-β peptide release (Aβ42 & AβTotal) is measured with a Pherastar FS (BMG) multimode reader using the alphascreen module.
In general terms: In Alpha technology, singlet oxygen from a donor bead excites a nearby acceptor bead.

In assay [2] the test system is Amyloid-β peptide release (AβTotal), HEK cells overexpressing APP (HEK-APP). Briefly: Amyloid-β peptide release (AβTotal) assay, AlphaLISA on supernatant of HEK-APP cells. The assay is classed as cell-based. Particulars: ratio Abtot vs Ab42, HEK-APP cells, 24 h. The protocol: as §1, §2

Structures are written as SMILES.

By IC50 is commonly meant the midpoint of a concentration-inhibition curve. For the compound `Cc1ncc2sc(-c3nnc(NCc4ccc(Cl)c(Cl)c4)o3)nn12` [Example 102, (3,4-Dichloro-benzyl)-[5-(5-methyl-imidazo[5,1-b][1,3,4]thiadiazol-2-yl)-[1,3,4]oxadiazol-2-yl]-amine], the 50% inhibitory concentration (IC50) in assay [1] was 0.1 to 0.5 µM. For the same compound, the Abtot/Ab42 selectivity ranges entry in assay [2] is “d (d: 10 fold > selectivity)”.

As for `Cc1ncc2oc(-c3ccc(NC(=O)C4(c5ccc(Cl)cc5)CCC4)cn3)nn12` [Example 84, 1-(4-Chloro-phenyl)-cyclobutanecarboxylic acid [6-(5-methyl-imidazo[5,1-b][1,2,4]oxadiazol-2-yl)-pyridin-3-yl]-amide], the IC50 in assay [1] was 0.5 to 1 µM. Further, the Abtot/Ab42 selectivity ranges entry in assay [2] is “c (c: 50 fold > selectivity ≥ 10 fold)”.

Regarding `Cc1ncc2oc(-c3ccc(C(=O)NCc4cccc5ccccc45)cc3)nn12` [Example 86, 4-(5-methylimidazo[5,1-b][1,3,4]oxadiazol-2-yl)-N-(naphthalen-1-ylmethyl)benzamide], in assay [1], the IC50 was 0.5 to 1 µM. Besides, in assay [2], the Abtot/Ab42 selectivity ranges result is “b (b: 100 fold > selectivity ≥ 50 fold)”.

As for `Cc1ncc2oc(-c3ccc(NC(=O)Cc4ccc(Cl)c(Cl)c4)cc3)nn12` [Example 77, 2-(3,4-dichlorophenyl)-N-(4-(5-methylimidazo[5,1-b][1,3,4]oxadiazol-2-yl)phenyl)acetamide], the IC50 in assay [1] fell in the range of 0.1 to 0.5 µM. In assay [2], the Abtot/Ab42 selectivity ranges entry is given as “a (a: selectivity ≥ 100 fold)”.

For `Cc1ncc2oc(-c3ccc(NC(=O)Cc4cc(F)cc(F)c4F)cc3)nn12` [Example 61, N-(4-(5-methylimidazo[5,1-b][1,3,4]oxadiazol-2-yl)phenyl)-2-(2,3,5-trifluorophenyl)acetamide], in assay [1], the IC50 fell in the range of 0.5 to 1 µM. In addition, the Abtot/Ab42 selectivity ranges result in assay [2] is listed as “b (b: 100 fold > selectivity ≥ 50 fold)”.

For the compound `COc1cc(NC(=O)Cc2cccc3ccccc23)ccc1-c1nn2c(C)ncc2s1` [Example 125, N-[3-Methoxy-4-(5-methyl-imidazo[5,1-b][1,3,4]thiadiazol-2-yl)-phenyl]-2-naphthalen-1-yl-acetamide], the IC50 in assay [1] lay in the range of 0.1 to 0.5 µM. The Abtot/Ab42 selectivity ranges result in assay [2] is on record as “c (c: 50 fold > selectivity ≥ 10 fold)”.

With `Cc1ncc2oc(-c3ccc(NC(=O)Cc4c(F)cc(Cl)cc4F)cc3)nn12` [Example 7, 2-(4-Chloro-2,6-difluoro-phenyl)-N-[4-(5-methyl-imidazo[5,1-b][1,2,4]oxadiazol-2-yl)-phenyl]-acetamide], the IC50 in assay [1] is 0.5 to 1 µM. In assay [2], the Abtot/Ab42 selectivity ranges entry is “b (b: 100 fold > selectivity ≥ 50 fold)”.

For `Cc1ncc2sc(C(=O)NCc3ccccc3OCC(F)(F)F)nn12` [Example 92, 5-Methyl-imidazo[5,1-b][1,3,4]thiadiazole-2-carboxylic acid 2-(2,2,2-trifluoro-ethoxy)-benzylamide], the IC50 in assay [1] was less than 0.1 µM. Also, in assay [2], the Abtot/Ab42 selectivity ranges entry is “d (d: 10 fold > selectivity)”.

For the compound `Cc1ncc2oc(-c3ccc(Nc4nc5c(s4)CCCC5c4ccccc4)cc3)nn12` (stereo not drawn) [Example 26, [4-(5-Methyl-imidazo[5,1-b][1,2,4]oxadiazol-2-yl)-phenyl]-(4-phenyl-4,5,6,7-tetrahydro-benzothiazol-2-yl)-amine], in assay [1], the IC50 is 1 to 2.2 µM. Further, the Abtot/Ab42 selectivity ranges entry in assay [2] was “c (c: 50 fold > selectivity ≥ 10 fold)”.

As for `COc1ccccc1CC(=O)Nc1ccc(-c2nn3c(C)ncc3o2)cc1` [Example 53, 2-(2-Methoxy-phenyl)-N-[4-(5-methyl-imidazo[5,1-b][1,2,4]oxadiazol-2-yl)-phenyl]-acetamide], the IC50 in assay [1] fell in the range of 1 to 2.2 µM. Moreover, in assay [2], the Abtot/Ab42 selectivity ranges entry is reported as “d (d: 10 fold > selectivity)”.

`Cc1ncc2oc(-c3ccc(NC(=O)Cc4ccc(Cl)c(C(F)(F)F)c4)cc3)nn12` [Example 4]: the IC50 in assay [1] is 1 to 2.2 µM. In assay [2], the Abtot/Ab42 selectivity ranges result is listed as “c (c: 50 fold > selectivity ≥ 10 fold)”.

As to `COc1ccc(Cl)c(CC(=O)Nc2ccc(-c3nn4c(C)ncc4o3)cc2)c1F` [Example 69, 2-(6-chloro-2-fluoro-3-methoxyphenyl)-N-(4-(5-methylimidazo [5,1-b][1,3,4]oxadiazol-2-yl)phenyl)acetamide], in assay [1], the IC50 is 0.5 to 1 µM. In addition, the Abtot/Ab42 selectivity ranges result in assay [2] is reported as “b (b: 100 fold > selectivity ≥ 50 fold)”.

With `CCC(C(=O)Nc1ccc(-c2nn3c(C)ncc3o2)nc1)c1ccccc1` (stereo not drawn) [Example 85, N-[6-(5-Methyl-imidazo[5,1-b][1,2,4]oxadiazol-2-yl)-pyridin-3-yl]-2-phenyl-butyramide], the IC50 in assay [1] fell in the range of 1 to 2.2 µM. For the same compound, in assay [2], the Abtot/Ab42 selectivity ranges result is reported as “c (c: 50 fold > selectivity ≥ 10 fold)”.

Turning to `Cc1ncc2sc(C(=O)N(C)Cc3ccccc3)nn12` [Example 98, 5-Methyl-imidazo[5,1-b][1,3,4]thiadiazole-2-carboxylic acid benzyl-methyl-amide], the IC50 in assay [1] fell in the range of 1 to 2.2 µM. In addition, the Abtot/Ab42 selectivity ranges result in assay [2] is “d (d: 10 fold > selectivity)”.

Regarding `Cc1ncc2sc(C(=O)N3CCCC3c3ccc(Br)cc3)nn12` (stereo not drawn) [Example 110, [2-(4-Bromo-phenyl)-pyrrolidin-1-yl]-(5-methyl-imidazo[5,1-b][1,3,4]thiadiazol-2-yl)-methanone], the IC50 in assay [1] is less than 0.1 µM. In addition, the Abtot/Ab42 selectivity ranges result in assay [2] is “d (d: 10 fold > selectivity)”.

`Cc1ncc2oc(-c3ccc(NC(=O)Nc4ccccc4C(F)(F)F)cc3)nn12` [Example 58, 1-[4-(5-Methyl-imidazo[5,1-b][1,2,4]oxadiazol-2-yl)-phenyl]-3-(2-trifluoromethyl-phenyl)-urea]: the IC50 in assay [1] was 0.5 to 1 µM. Besides, in assay [2], the Abtot/Ab42 selectivity ranges result is “d (d: 10 fold > selectivity)”.

In the case of `Cc1ncc2sc(-c3ccc(C(=O)NCc4cccc5ccccc45)cc3)nn12` [Example 127, 4-(5-Methyl-imidazo[5,1-b][1,3,4]thiadiazol-2-yl)-N-naphthalen-1-ylmethyl-benzamide], the IC50 in assay [1] is 0.5 to 1 µM. Also, the Abtot/Ab42 selectivity ranges result in assay [2] was “b (b: 100 fold > selectivity ≥ 50 fold)”.

For the compound `Cc1ncc2oc(-c3ccc(NC(=O)Cc4cccc(Cl)c4)cc3)nn12` [Example 63, 2-(3-chlorophenyl)-N-(4-(5-methylimidazo[5,1-b][1,3,4]oxadiazol-2-yl)phenyl)acetamide], the IC50 in assay [1] is 0.5 to 1 µM. For the same compound, the Abtot/Ab42 selectivity ranges entry in assay [2] was “b (b: 100 fold > selectivity ≥ 50 fold)”.

As to `Cc1ncc2oc(-c3ccc(Nc4ccn(Cc5ccc(Cl)cc5)n4)cc3)nn12` [Example 29, [1-(4-Chloro-benzyl)-1H-pyrazol-3-yl]-[4-(5-methyl-imidazo[5,1-b][1,2,4]oxadiazol-2-yl)-phenyl]-amine], the half-inhibitory concentration (IC50) in assay [1] lay within 1 to 2.2 µM. Further, the Abtot/Ab42 selectivity ranges entry in assay [2] was “d (d: 10 fold > selectivity)”.

Consider `Cc1ncc2sc(C(=O)N3CCCC3c3cccc(Br)c3)nn12` (stereo not drawn) [Example 123, [2-(3-Bromo-phenyl)-pyrrolidin-1-yl]-(5-methyl-imidazo[5,1-b][1,3,4]thiadiazol-2-yl)-methanone], for which the half-maximal inhibitory concentration (IC50) in assay [1] is 1 to 2.2 µM. Further, in assay [2], the Abtot/Ab42 selectivity ranges entry is “d (d: 10 fold > selectivity)”.

For the compound `COc1cc(NC(=O)Cc2c(Cl)cc(C(F)(F)F)cc2Cl)ccc1-c1nn2c(C)ncc2o1` [Example 32, 2-(2,6-dichloro-4-(trifluoromethyl)phenyl)-N-(3-methoxy-4-(5-methylimidazo[5,1-b][1,3,4]oxadiazol-2-yl)phenyl) acetamide], the IC50 in assay [1] fell in the range of 0.1 to 0.5 µM. For the same compound, the Abtot/Ab42 selectivity ranges result in assay [2] is given as “a (a: selectivity ≥ 100 fold)”.

Turning to `Cc1ncc2sc(C(=O)N3CCCCC3c3ccccc3Cl)nn12` (stereo not drawn) [Example 115, [2-(2-Chloro-phenyl)-piperidin-1-yl]-(5-methyl-imidazo[5,1-b][1,3,4]thiadiazol-2-yl)-methanone], in assay [1], the IC50 was in the range of 0.5 to 1 µM. In addition, the Abtot/Ab42 selectivity ranges result in assay [2] was “d (d: 10 fold > selectivity)”.

Consider `Cc1ncc2oc(-c3ccc(C(=O)NCc4csc5ccc(Cl)cc45)cc3)nn12` [Example 88, N-((5-chlorobenzo[b]thiophen-3-yl)methyl)-4-(5-methylimidazo[5,1-b][1,3,4]oxadiazol-2-yl)benzamide], for which, in assay [1], the IC50 is 1 to 2.2 µM. The Abtot/Ab42 selectivity ranges entry in assay [2] was “c (c: 50 fold > selectivity ≥ 10 fold)”.

Take `CCOc1ccc(CC(=O)Nc2ccc(-c3nn4c(C)ncc4o3)c(OC)c2)cc1` [Example 35, 2-(4-ethoxyphenyl)-N-(3-methoxy-4-(5-methylimidazo [5,1-b][1,3,4]oxadiazol-2-yl)phenyl)acetamide]: the concentration for half-maximal inhibition (IC50) in assay [1] lay within 0.5 to 1 µM. For the same compound, the Abtot/Ab42 selectivity ranges result in assay [2] is “b (b: 100 fold > selectivity ≥ 50 fold)”.

As to `COc1cc(C(=O)NCc2ccc(Cl)c(Cl)c2)ccc1-c1nn2c(C)ncc2o1` [Example 19, N-(3,4-Dichloro-benzyl)-3-methoxy-4-(5-methyl-imidazo[5,1-b][1,2,4]oxadiazol-2-yl)-benzamide], the IC50 in assay [1] was 1 to 2.2 µM. Besides, in assay [2], the Abtot/Ab42 selectivity ranges entry is given as “c (c: 50 fold > selectivity ≥ 10 fold)”.

For the compound `Cc1ncc2oc(-c3ccc(NC(=O)Cc4ccc(C#N)cc4)cc3)nn12` [Example 49, 2-(4-Cyano-phenyl)-N-[4-(5-methyl-imidazo[5,1-b] [1,2,4]oxadiazol-2-yl)-phenyl]-acetamide], the IC50 in assay [1] is 1 to 2.2 µM. The Abtot/Ab42 selectivity ranges entry in assay [2] was “c (c: 50 fold > selectivity ≥ 10 fold)”.

With `COc1cc(NC(=O)Cc2cc(C)ccc2C)ccc1-c1nn2c(C)ncc2s1` [Example 126, 2-(2,5-Dimethyl-phenyl)-N-[3-methoxy-4-(5-methyl-imidazo[5,1-b][1,3,4]thiadiazol-2-yl)-phenyl]-acetamide], the IC50 in assay [1] lay within 0.5 to 1 µM. Further, the Abtot/Ab42 selectivity ranges entry in assay [2] is given as “d (d: 10 fold > selectivity)”.

These data come from US9932354B2, “Imidazo-oxadiazole and imidazo-thiadiazole derivatives” (Ares Trading S.A., priority 2012, dated 2018).
